Experimental data: patent US20230295181A1, “INHIBITOR OF APOPTOSIS (IAP) PROTEIN ANTAGONISTS” (Sanford Burnham Prebys Medical Discovery Institute, priority 2020, published 2023)
Counter-ions that a name gives are not always drawn.

Tests used:
SKOV-3 cancer cell lines = experiment: SKOV-3 cell viability after treatment with 10 μM test compound; type: cell-based; conditions: for viability at 10 µM: Homo sapiens, SK-OV-3, 10 micromolar test compound, SKOV-3 cells; for % viability after treatment with 10 micromolar of test compound (SKOV-3 cells): 10 micromolar test compound, hydrochloride
Protocol: SKOV-3 cancer cell lines were treated with a test compound, either as a pure enantiomer or a mixture of stereoisomers, at a concentration of 10 μM. Cell viability was evaluated following treatment with a compound as disclosed in Table B. Viability of cancer cells following treatment is indicated according to the following legend:
A=0-25% viability B=26-50% viability C=>50% viability

SKOV-3 = experiment: Cell viability (CellTiterGlo), SKOV-3; type: cell-based; conditions: Homo sapiens, SK-OV-3
Protocol: (§1) Candidate compounds are tested in 384-well plates for effects on cell viability in the presence or absence of an appropriate conventional anticancer drug. Cell viability is indirectly monitored in the first instance using CellTiterGlo (Promega Corp., Madison, WI) (Table D). To determine if cell death is apoptotic, the induction of caspase activity is assessed utilizing the CaspaseGlo Assay system (Promega Corp., Madison, WI) (Table E). Cell viability is monitored 1 to 3 days after addition of compounds and conventional drugs. […] A compound of any of the formulae as disclosed herein is evaluated in combination with said anticancer drug to determine which ML-IAP antagonist can sensitize most efficaciously. Select candidate compounds are tested in 14 point drug dose response (DDR) curves in a 384-well format in order to establish potency in combination with decreasing concentrations of lung cancer relevant drug regimens. Furthermore, checker-board titrations of a conventional drug and the candidate molecules are performed to search for synergy (using ISOBOLOGRAM analysis). Compounds and combinations as described herein are also tested for cytotoxicity against normal human cells (e.g. primary fibroblasts, lymphocytes, hepatocytes, epithelial and endothelial cells) using known methods.
(§2) Cell viability was evaluated following treatment with a compound as disclosed in Table D. Viability of cancer cells following treatment is indicated according to the following legend: […]

OVCAR-4 = experiment: Cell viability (CellTiterGlo), OVCAR-4; type: cell-based; conditions: Homo sapiens
Protocol: as §1, §2

Caspase 3/7 (SKOV-3) = experiment: Induction of caspase 3/7 activity (CaspaseGlo), SKOV-3; type: cell-based; conditions: Homo sapiens, SK-OV-3
Protocol: as §1
(§3) The induction of caspase activities was tested with a compound as disclosed in Table E. The activities are indicated according to the following legend: […]

Caspase 3/7 (OVCAR-4) = experiment: Induction of caspase 3/7 activity (CaspaseGlo), OVCAR-4; type: cell-based; conditions: Homo sapiens
Protocol: as §1, §3

Caspase 9 (SKOV-3) = experiment: Induction of caspase 9 activity (CaspaseGlo), SKOV-3; type: cell-based; conditions: Homo sapiens, SK-OV-3
Protocol: as §1, §3

[1] = In vivo PK plasma exposure in mice
Protocol: Pharmacokinetic (PK) studies are performed in vivo in mice for compounds as described herein. Standard formulations are evaluated, including hydroxypropyl methylcellulose, carboxymethylcellulose, and polyethylene glycol. For intravenous studies, compounds are administered via indwelling catheters in jugular vein and samples collected from the carotid artery. These experiments provide basic pharmacokinetic parameters including peak plasma concentration (Cmax), bioavailability (% F), exposure (AUC), half-life (t½), clearance (CL), volume of distribution (Vd), and brain levels. To measure bioavailability, a compound as described herein is administered to three animals/group, both orally (10 mg/kg) and intravenously (1 mg/kg). Intraperitoneally administration is also assessed in order to determine both brain and plasma levels of compounds.
The compounds described herein were tested in vivo in mice to measure PK plasma exposure as shown in Table F. The PK plasma values are indicated according to the following legend: […]

SMILES | viability at 10 µM (SKOV-3 cancer cell lines) [%] | IC50 (SKOV-3) [nM] | IC50 (OVCAR-4) [nM] | % viability after treatment with 10 micromolar of test compound (SKOV-3 cells) (SKOV-3 cancer cell lines) | EC50 (Caspase 3/7 (SKOV-3)) [nM] | EC50 (Caspase 3/7 (OVCAR-4)) [nM] | EC50 (Caspase 9 (SKOV-3)) [nM] | PK plasma exposure at 1 h (IP, 10 mg/kg) [1]
C=CCC1C[C@@H]2OCC[C@H](NC(=O)[C@H](C)NC)C(=O)N2[C@@H]1C(=O)N[C@@H]1CCCc2ccccc21 (stereo partly drawn) [Compound 15, (4S,9aS)-8,8-allyl-4-((S)-2-(methylamino)propanamido)-5-oxo-N—((R)-1,2,3,4-tetrahydronaphthalen-1-yl)octahydropyrrolo[2,1-b][1,3]oxazepine-7-carboxamide hydrochloride] | 26 to 50 | 10 to 100 | > 1000 | – | – | – | – | –
CCC1(CC)C[C@@H]2OCC[C@H](NC(=O)[C@H](C)NC)C(=O)N2[C@@H]1C(=O)N[C@@H]1CCCc2ccccc21 [Compound 21, (4S)-8,8-diethyl-4-((S)-2-(methylamino)propanamido)-5-oxo-N—((R)-1,2,3,4-tetrahydronaphthalen-1-yl)octahydropyrrolo[2,1-b][1,3]oxazepine-7-carboxamide hydrochloride] | 0 to 25 | 10 to 100 | 100 to 1000 | – | – | – | – | –
C=CCC1(CC=C)C[C@@H]2SCC[C@H](NC(=O)[C@H](C)NC)C(=O)N2[C@@H]1C(=O)N[C@@H]1CCCc2ccccc21 [Compound 29, (4S,9aS)-8,8-diallyl-4-((S)-2-(methylamino)propanamido)-5-oxo-N—((R)-1,2,3,4-tetrahydronaphthalen-1-yl)octahydropyrrolo[2,1-b][1,3]thiazepine-7-carboxamide hydrochloride] | – | > 1000 | > 1000 | A (A=0-25% viability) | – | – | – | –
C=CCC1C[C@@H]2SCC[C@H](NC(=O)[C@H](C)NC)C(=O)N2[C@@H]1C(=O)N[C@@H]1CCCc2ccccc21 (stereo partly drawn) [Compound 32, (4S,9aS)-8,8-allyl-4-((S)-2-(methylamino)propanamido)-5-oxo-N—((R)-1,2,3,4-tetrahydronaphthalen-1-yl)octahydropyrrolo[2,1-b][1,3]thiazepine-7-carboxamide hydrochloride] | – | 10 to 100 | > 1000 | A (A=0-25% viability) | – | – | – | –
CCC1C[C@@H]2SCC[C@H](NC(=O)[C@H](C)NC)C(=O)N2[C@@H]1C(=O)N[C@@H]1CCCc2ccccc21 (stereo partly shown) [Compound 36, hydrochloride] | 26 to 50 | 10 to 100 | 100 to 1000 | – | – | – | – | –
CN[C@@H](C)C(=O)N[C@H]1CCS[C@H]2CC(C(C)C)(C(C)C)[C@@H](C(=O)N[C@@H]3CCCc4ccccc43)N2C1=O [Compound 41, 4S,9aS)-8,8-diisopropyl-4-((S)-2-(methylamino)propanamido)-5-oxo-N—((R)-1,2,3,4-tetrahydronaphthalen-1-yl)octahydropyrrolo[2,1-b][1,3]thiazepine-7-carboxamide hydrochloride] | – | > 1000 | > 1000 | A (A=0-25% viability) | – | – | – | –
CN[C@@H](C)C(=O)N[C@H]1CCS[C@H]2CC(CCc3ccccc3)[C@@H](C(=O)N[C@@H]3CCCc4ccccc43)N2C1=O (stereo partly drawn) [Compound 44, (4S,9aS)-4-((S)-2-(methylamino)propanamido)-5-oxo-8,8-phenethyl-N—((R)-1,2,3,4-tetrahydronaphthalen-1-yl)octahydropyrrolo[2,1-b][1,3]thiazepine-7-carboxamide hydrochloride] | – | > 1000 | > 1000 | A (A=0-25% viability) | – | – | – | –
CN[C@@H](C)C(=O)N[C@H]1CCS[C@H]2CC(CCc3ccccc3)(CCc3ccccc3)[C@@H](C(=O)N[C@@H]3CCCc4ccccc43)N2C1=O [Compound 45, (4S,9aS)-4-((S)-2-(methylamino)propanamido)-5-oxo-8,8-diphenethyl-N—((R)-1,2,3,4-tetrahydronaphthalen-1-yl)octahydropyrrolo[2,1-b][1,3]thiazepine-7-carboxamide hydrochloride] | 0 to 25 | 100 to 1000 | > 1000 | – | – | – | – | –
CN[C@@H](C)C(=O)N[C@H]1CCOC2CC(C)(C)[C@@H](C(=O)Nc3ccccc3-c3ncccn3)N2C1=O (stereo partly drawn) [Compound 55, (4S,7S)-8,8-dimethyl-4-((S)-2-(methylamino)propanamido)-5-oxo-N-(2-(pyrimidin-2-yl)phenyl)octahydropyrrolo[2,1-b][1,3]oxazepine-7-carboxamide hydrochloride] | > 50 | > 1000 | > 1000 | – | – | – | – | –
CN[C@@H](C)C(=O)N[C@H]1CCO[C@H]2CC(C)(C)[C@@H](CN[C@@H]3CCCc4ccccc43)N2C1=O [Compound 56, (S)—N-((4S,7S,9aS)-8,8-dimethyl-5-oxo-7-((((R)-1,2,3,4-tetrahydronaphthalen-1-yl)amino)methyl)octahydropyrrolo[2,1-b][1,3]oxazepin-4-yl)-2-(methylamino)propanamide dihydrochloride] | > 50 | > 1000 | > 1000 | – | – | – | – | –
CN[C@@H](C)C(=O)N[C@H]1CCO[C@H]2CC(C)(C)[C@@H](C(=O)N[C@@H]3CCSc4ccccc43)N2C1=O [Compound 69, (4S,7S,9aS)-8,8-dimethyl-4-((S)-2-(methylamino)propanamido)-5-oxo-N—((R)-thiochroman-4-yl)octahydropyrrolo[2,1-b][1,3]oxazepine-7-carboxamide hydrochloride] | 0 to 25 | 10 to 100 | 100 to 1000 | – | – | – | – | –
CN[C@@H](C)C(=O)N[C@H]1CCO[C@H]2CC(C)(C)[C@@H](C(=O)NCCC(C)C)N2C1=O [Compound 70, (4S,7S,9aS)—N-isopentyl-8,8-dimethyl-4-((S)-2-(methylamino)propanamido)-5-oxooctahydropyrrolo[2,1-b][1,3]oxazepine-7-carboxamide hydrochloride] | > 50 | > 1000 | > 1000 | – | – | – | – | –
CN[C@@H](C)C(=O)N[C@H]1CCO[C@H]2CC(C)(C)[C@@H](C(=O)N[C@@H]3CCOc4ccccc43)N2C1=O [Compound 74, (4S,7S,9aS)—N—((R)-chroman-4-yl)-8,8-dimethyl-4-((S)-2-(methylamino)propanamido)-5-oxooctahydropyrrolo[2,1-b][1,3]oxazepine-7-carboxamide hydrochloride] | 0 to 25 | 10 to 100 | 100 to 1000 | – | – | – | – | –
CC[C@H](NC)C(=O)N[C@H]1CCS[C@H]2CC(C)(C)[C@@H](C(=O)N[C@@H]3CCCc4ccccc43)N2C1=O.Cl [Compound 79, (4S,7S,9aS)-8,8-dimethyl-4-((S)-2-(methylamino)butanamido)-5-oxo-N—((R)-1,2,3,4-tetrahydronaphthalen-1-yl)octahydropyrrolo[2,1-b][1,3]thiazepine-7-carboxamide hydrochloride] | 0 to 25 | 1 to 10 | 10 to 100 | – | 1 to 10 | 1 to 10 | 1 to 10 | iii (iii=500-1000 nM)
